Assays:
[1] = test system: ROS 17/2.8 bone cancer cells; assay: Cell viability, ROS 17/2.8 bone cancer cells; format: cell-based; conditions: four days growth, methylene blue; FIG. 7
Protocol: (§1) Various cell lines were plated, administered a range of drug concentrations one time, allowed to grow for four days and then the number of cells present counted and expressed as a percentage of those present in the vehicle control plates. […] The number of live cells was expressed as a percentage of the total present. Each assay was done in duplicate.

vitamin D-deficient rats [2] = assay: Intestinal calcium transport (everted gut sac method); format: in vivo, rat; conditions: 4 consecutive ip doses, FIG. 10
Protocol: (§2) Male, weanling Sprague-Dawley rats were placed on Diet 11 (Suda et al, J. Nutr. 100:1049, 1970) (0.47% Ca)+AEK oil for one week followed by Diet 11 (0.02% Ca)+AEK oil for 3 weeks. The rats were then switched to the same diet containing 0.47% Ca for one week followed by two weeks on the same diet containing 0.02% Ca. Dose administration began during the last week on 0.02% calcium diet. Four consecutive intraperitoneal (ip) doses were given approximately 24 hours apart. Twenty-four hours after the last dose, blood was collected from the severed neck and the concentration of serum calcium determined by atomic absorption spectrometry as a measure of bone calcium mobilization. The first 10 cm of the intestine was also collected for intestinal calcium transport analysis using the everted gut sac method.

[3] = test system: H-82 lung carcinoma cells; assay: Cell viability, H-82 lung carcinoma cells; format: cell-based; conditions: four days growth, methylene blue; FIG. 5A/5B
Protocol: as §1

[4] = target: T1, full-length recombinant rat vitamin D receptor (Rattus norvegicus, UniProt P13053); assay: Vitamin D receptor competitive binding with [3H]-1,25(OH)2D3; conditions: compared to 1α,25-dihydroxyvitamin D3; FIG. 1
T1 construct: Full-length recombinant rat receptor was expressed in E. coli; histidine tag (C); made in house; host or cells: E. coli BL21 (DE3) Codon Plus RIL
T1 sequence (P13053 1-423): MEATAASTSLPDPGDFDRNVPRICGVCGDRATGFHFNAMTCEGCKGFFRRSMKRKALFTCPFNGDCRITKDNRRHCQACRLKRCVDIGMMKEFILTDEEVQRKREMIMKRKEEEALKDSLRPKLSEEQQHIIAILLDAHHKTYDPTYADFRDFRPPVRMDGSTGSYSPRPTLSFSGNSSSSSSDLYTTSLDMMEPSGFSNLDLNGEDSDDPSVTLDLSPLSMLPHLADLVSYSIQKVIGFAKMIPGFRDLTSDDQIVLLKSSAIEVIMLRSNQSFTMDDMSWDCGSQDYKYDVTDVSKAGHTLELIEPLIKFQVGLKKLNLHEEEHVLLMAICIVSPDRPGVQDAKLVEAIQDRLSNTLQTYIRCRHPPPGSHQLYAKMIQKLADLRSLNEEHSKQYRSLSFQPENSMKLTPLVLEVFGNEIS
Protocol: Full-length recombinant rat receptor was expressed in E. coli BL21 (DE3) Codon Plus RIL cells and purified to homogeneity using two different column chromatography systems. The first system was a nickel affinity resin that utilizes the C-terminal histidine tag on this protein. […] Aliquots of the purified protein were quick frozen in liquid nitrogen and stored at −80° C. until use. For use in binding assays, the protein was diluted in TEDK50 (50 mM Tris, 1.5 mM EDTA, pH7.4, 5 mM DTT, 150 mM KCl) with 0.1% Chaps detergent. The receptor protein and ligand concentration was optimized such that no more than 20% of the added radiolabeled ligand was bound to the receptor.
Radiolabeled and unlabeled ligands were added to 100 mcl of the diluted protein at a final ethanol concentration of ≦10%, mixed and incubated overnight on ice to reach binding equilibrium. The following day, 100 mcl of hydroxylapatite slurry (50%) was added to each tube and mixed at 10-minute intervals for 30 minutes. The hydroxylapaptite was collected by centrifugation and then washed three times with Tris-EDTA buffer (50 mM Tris, 1.5 mM EDTA, pH 7.4) containing 0.5% Titron X-100. […] Total binding was determined from the tubes containing only radiolabeled ligand.

[5] = test system: DU-145 prostate cancer cells; assay: Cell viability, DU-145 prostate cancer cells; format: cell-based; conditions: four days growth, methylene blue; FIG. 6
Protocol: as §1

[6] = Change in body weight of dosed animals; format: in vivo, rat; conditions: various doses; FIG. 11
Protocol: as §2

[7] = test system: 24-hydroxylase (24Ohase) gene promoter; assay: In vitro transcription assay (24-hydroxylase promoter luciferase reporter in ROS 17/2.8 bone cells); format: cell-based; conditions: FIG. 3
Protocol: Cells were given a range of doses. Sixteen hours alter dosing the cells were harvested and luciferase activities were measured using a luminometer. RLU=relative luciferase units.

HL-60 leukemia cells = assay: Cell viability, HL-60 leukemia cells; format: cell-based, human; conditions: four days growth, methylene blue; FIG. 4A/4B
Protocol: as §1

HL-60 cells = assay: HL-60 differentiation (nitro blue tetrazolium reduction); format: cell-based, human; conditions: FIG. 2
Protocol: The study drugs were dissolved in ethanol and the concentrations determined using UV spectrophotometry. Serial dilutions were prepared so that a range of drug concentrations could be tested without changing the final concentration of ethanol (≦0.2%) present in the cell cultures.
Human promyelocytic leukemia (HL60) cells were grown in RPMI-1640 medium containing 10% fetal bovine serum. The cells were incubated at 37° C. in the presence of 5% CO2.
HL60 cells were plated at 1.2×10^5 cells/ml. Eighteen hours after plating, cells in duplicate were treated with drug. Four days later, the cells were harvested and a nitro blue tetrazolium reduction assay was performed (Collins et al., 1979; J. Exp. Med. 149:969-974). The percentage of differentiated cells was determined by counting a total of 200 cells and recording the number that contained intracellular black-blue formazan deposits. Verification of differentiation to monocytic cells was determined by measuring phagocytic activity (data not shown).

[8] = test system: OVCAR3 ovarian cancer cells; assay: Cell viability, OVCAR3 ovarian cancer cells; format: cell-based; conditions: four days growth, methylene blue; FIG. 8
Protocol: as §1

vitamin D-deficient rats [9] = assay: Bone calcium mobilization (serum calcium); format: in vivo, rat; conditions: rats on 0.02% Ca diet, FIG. 9
Protocol: as §2

| Structure (SMILES) | Viability of ROS 17/2.8 bone cancer cells [1] | Intestinal calcium transport activity (vitamin D-deficient rats [2]; 35,100 pmol/rat) | Viability of H-82 lung carcinoma cells [3] | VDR binding activity relative to natural hormone (times less active) [4] | Viability of DU-145 prostate cells [5] | Body weight throughout the test period [6] | Transcriptional activity in bone cells (in words) ([7]; until very high doses are administered) | Viability of HL-60 leukemia cells (HL-60 leukemia cells) | HL-60 cell differentiation (in words) (HL-60 cells) | Viability of OVCAR3 ovarian cancer cells [8] | Bone calcium mobilization (serum calcium) (vitamin D-deficient rats [9]; 35,100 pmol/day for 4 consecutive days, ip) | Intestinal calcium transport activity (vitamin D-deficient rats [2]; 260 pmol and 780 pmol doses) | EC50 ([7]; ROS 17/2.8 cells, 16 h after dosing) [nM] | EC50 (HL-60 cells; four days after treatment, read-out: EC50, HL-60 cell differentiation) [nM] | Bone calcium mobilization (serum calcium) (vitamin D-deficient rats [9]; 4 consecutive ip doses) |
| --- | --- | --- | --- | --- | --- | --- | --- | --- | --- | --- | --- | --- | --- | --- | --- |
| C=C1CC[C@H](O)C/C1=C/C=C1\CCC[C@]2(C)[C@@H]([C@H](C)CCCOS(=O)(=O)c3ccc(C)cc3)CC[C@@H]12 [TS-17, (20R)-25,26,27-trinor-24-(p-methylphenylsulfonate)-vitamin D3] | does not have any significant effect on the viability | little to no activity | kills H-82 lung carcinoma cells | at least 100 times less active | does not have any significant effect on the viability | substantially maintain their body weight | lacks any transcriptional activity | kills HL-60 leukemia cells | does not promote HL60 differentiation | does not have any significant effect on the viability | little or no mobilization of bone calcium | – | – | – | – |
| C=C1/C(=C\C=C2/CCC[C@]3(C)[C@@H]([C@H](C)CCCC(C)(C)O)CC[C@@H]23)C[C@@H](O)C[C@@H]1O [1,25(OH)2D3, 1α,25-dihydroxyvitamin D3, reference compound] | – | – | requires a significantly higher dose | – | – | – | – | does not have any significant effect on the viability | – | – | – | significant increase in activity | 0.1 | 2 | significant increases in serum calcium |

— patent publication US9290447B2, “(20R) and (20S)-24-(p-toluenesulfonyloxy)-25,26,27-trinorvitamin D3 analogs and their uses” (Wisconsin Alumni Research Foundation, priority 2011, dated 2016)
